Like-named read-outs stand apart in the source and are kept apart here.
Tests used:
L1210/C15 cells = experiment: L1210/C15 cell culture growth inhibition (overproduces TS 45-fold); format: cell-based; settings: 48 hours; at 100 uM
Protocol: Cell counts after 48 hours of incubation were obtained by Coulter counting.

L1210 cells [1] = experiment: Reversal of L1210 toxicity by co-incubation with thymidine; format: cell-based; settings: compound 50 uM + 10 uM thymidine
Protocol: Cells in the log phase of growth were diluted to about 5×10^4 /ml and duplicate 5ml aliquots were added to 50 ml tissue culture flasks containing the appropriate additions (diluted in RPMI and sterilised by Millipore filtration). Cell counts after 48 hours of incubation were obtained by Coulter counting.

[2] = test system: de novo thymidylate synthesis in L1210 cells; experiment: Incorporation of 3H dUrd into acid-precipitable material in L1210 cells; format: cell-based; settings: Mus musculus, L1210, 10 min; 50 uM, by about 10 minutes
Protocol: L1210 cells were used at a concentration of 10^5 /ml. Incubation at 37° C. was in complete RPMI tissue culture medium plus or minus drugs for the lengths of time indicated on the graphs. After this time ^3 H dUrd was added at a concentration of 2 uCi/ml (about 0.2 uM). Three 1 ml aliquots were removed after 20 minutes, placed on ice and mixed with 1 ml of ice-cold phosphate buffered saline (PBS). Precipitation onto glass-fibre discs was performed by trichloroacetic acid washing followed by PBS. […] This is an indirect measurement of de novo thymidylate synthesis in whole cells. […] These concentrations are 10 times the ID50 values.

L1210 tumour [3] = experiment: Treatment of L1210 tumour-bearing mice; format: in vivo, mouse
Protocol: (§1) The L1210 tumour is carried routinely in DBA2 mice at the Institute of Cancer Research (L1210/CBRI). For experiments 5×10^4 cells were implanted i.p. into male C57Bl×DBA2 F1 hybrid mice 3 days prior to treatment. […] The control group consisted of 9 mice and treated groups 6 or 7 mice.

[4] = Comparative pharmacokinetics in the mouse (plasma, liver, kidney levels); format: in vivo; settings: for concentration at 3 h / concentration at 6 h: mouse, plasma, ip, read-out: Plasma quinazoline conc.
Protocol: 3 Hours and 6 hours after administration groups of three mice at each dose level were sacrificed by exsanguination via cardiac puncture. Plasma was prepared and the livers and kidneys excised and weighed.

alanine transaminase = experiment: Comparative hepatotoxicity in the mouse (plasma alanine transaminase); format: in vivo
Protocol: […]. Plasma was prepared and the livers and kidneys excised and weighed.
Samples of plasma were also analysed for the enzyme alanine transaminase, an indicator of hepatotoxicity. […]

[5] = Urinary and faecal elimination in the mouse; format: in vivo; settings: ip, 100 mg/kg i.p., 0-48 h
[6] = Toxicity and weight loss in treated L1210 tumour-bearing mice; format: in vivo, mouse; settings: 200 mg/kg, data not included
Protocol: as §1

[7] = rat, in vivo; for concentration: iv, 100 mg/kg
Protocol: (§2) During and after the infusion blood and bile samples were collected. Four hours after the experiment the rats were sacrificed and the urine collected from the bladder and the liver and kidneys removed.
(§3) Samples of plasma were also analysed for alanine transaminase.

L1210 cells [8] = settings: grown in vitro; cited from earlier work
L1210 cells [9] = settings: cited from earlier work
L1210 tumour [10] = settings: grown in vivo; cited from earlier work
[11] = mouse; cited from earlier work
[12] = man, cited from earlier work
[13] = cited from earlier work
in vivo = settings: rat, iv, 100 mg/kg, Plasma levels
Protocol: as §2, §3

[14] = 100 mg/kg i.p., 3 h post-treatment
[15] = 100 mg/kg i.p., 6 h post-treatment
[16] = 300 mg/kg i.p., 3 h post-treatment
[17] = 300 mg/kg i.p., 6 h post-treatment

Structure (SMILES): C#CCN(Cc1ccc2nc(N)nc(O)c2c1)c1ccc(C(=O)N[C@@H](CCC(=O)O)C(=O)O)cc1 [CB3717, N-(4-(N-((2-amino-4-hydroxy-6-quinazolyl)methyl)prop-2-ynylamino)benzoyl)-L-glutamic acid, reference compound]
- L1210/C15 ID50 (L1210/C15 cells): no inhibition
- Cell count at 48 hours as % control (L1210 cells [1]): 103 % control
- activity at 50 µM [2]: < 20%
- "cures" (survived >100 days) (L1210 tumour [3]; 50 mg/kg i.p. daily ×5): about 70%
- "cures" (L1210 tumour [3]; 100 mg/kg (the optimal dose), many previous experiments): 80-100%
- Kidney quinazoline level [4, 14]: 13 ± 2 % dose administered
- Liver quinazoline level [4, 14]: 32 ± 4 % dose administered
- Kidney quinazoline level [4, 15]: 20 ± 8 % dose administered
- Liver quinazoline level [4, 15]: 11 ± 2 % dose administered
- Kidney quinazoline level [4, 16]: 6 ± 1 % dose administered
- Liver quinazoline level [4, 16]: 22 ± 8 % dose administered
- Kidney quinazoline level [4, 17]: 16 ± 1 % dose administered
- Liver quinazoline level [4, 17]: 14 ± 6 % dose administered
- detection in plasma, liver and kidneys ([4]; mice, 3 and 6 hours after i.p. dose, for CB3804 except plasma 3 h at 500 mg/kg): readily detected
- concentration at 3 h [4, 14]: 134 ± 34 µM
- concentration at 6 h [4, 15]: 59 ± 38 µM
- concentration at 3 h [4, 16]: 214 ± 55 µM
- concentration at 6 h [4, 17]: 362 ± 32 µM
- Plasma alanine transaminase level (alanine transaminase; [14]): 225 ± 146 U/L
- Plasma alanine transaminase level (alanine transaminase; [15]): 273 ± 106 U/L
- Plasma alanine transaminase level (alanine transaminase; [16]): 86 ± 61 U/L
- Plasma alanine transaminase level (alanine transaminase; [17]): 973 ± 178 U/L
- Levels of alanine transaminase (in words) (alanine transaminase; mice i.p., normal range 5-25U/l): markedly elevated
- dose excreted at 48 h ([5]; faeces, read-out: Faecal excretion of the parent compound): 26 ± 7%
- dose excreted at 48 h ([5]; urine, read-out: Urinary excretion of the parent compound): 15 ± 3%
- weight loss [6]: about 10%
- mortality ([6]; mouse, in vivo, ip, read-out: death (of the animals)): ~50%
- clearance from the plasma (in words) [7]: cleared less rapidly
- concentration ([7]; 0.5 h): 447 µM
- concentration ([7]; 1 h): 878 µM
- activity against L1210 cells in vitro (L1210 cells [8]): active against L1210 cells
- effect of thymidine on cytotoxic effect (L1210 cells [9]): prevented in both cases by thymidine
- activity against L1210 cells in vivo (L1210 tumour [10]): active against L1210 cells
- kidney toxicity: plasma urea [11]: rise in plasma urea
- liver toxicity: alanine transaminase [11]: transient rise in alanine transaminase
- hepatic toxicity [12]: apparently non-dose-related (although not life-threatening) hepatic toxicity
- liver toxicity: alanine transaminase [12]: transient rise in alanine transaminase
- responses noted during Phase I/II clinical studies ([12]; particularly breast and ovary): Several minor and partial responses
- solubility at acid pH [13]: poor solubility
- concentration at 0.5 h (in vivo): 412 µM
- concentration at 1 h (in vivo): 908 µM

— patent publication US5236927A, “Anti-cancer quinazoline derivatives” (National Research Development Corporation, priority 1985, dated 1993)
